Measured values reported in publication PMC4827351 (Chemical Science, 2015).

How the values were obtained:
[1] = system: Escherichia coli ATCC 25922; test: Antimicrobial activity assay (CFU counting); format: cell-based; conditions: 50 µM peptide, 1 h, 37 °C, 10 mM sodium phosphate buffer containing 1% v/v TSB, n = 3
Description: (§1) The assays were performed according to a literature procedure.[15] Briefly, a 90 μL aliquot of the diluted bacterial culture was added to each well and then to each well was added 10 μL of a 10× concentrated aqueous peptide solution (500 μM) or sterile Milli-Q water as a no-peptide control. The plate was incubated for 1 h (37 °C, 150 rpm). The serial dilution for CFU counting was conducted as previously reported.[15] These assays were performed with at least two independently prepared and purified samples of each peptide and in three independent trials. The resulting averages and standard deviations are reported. […]
(§2) a bE. coliL. monocytogenes
(§3) Concentration (µM) Concentration (µM)
(§4) Figure S4. Antibacterial activity assays against E. coli ATCC 25922 and L. monocytogenes ATCC 19115. The bacteria were treated with 50 µM of each peptide for 1 h at 37 ° C in 10 mM sodium phosphate buffer containing 1% v/v TSB (mean ± SDM, n = 3). An asterisk indicates no […]
(§5) Retention Time (min) Retention Time (min)
(§6) Figure S5. In vitro trypsin-catalyzed proteolysis of proHD6. Analytical HPLC traces of trypsin-treated (a) proHD6 or (b) mature HD6 (30 µM x 80 µL) at indicated time points. Absorbance at 220 nm was monitored with a reference wavelength of 500 nm. Method: 10–60% B over 30 min

[2] = system: Listeria monocytogenes ATCC 19115; test: Antimicrobial activity assay (CFU counting); format: cell-based; conditions: 50 µM peptide, 1 h, 37 °C, 10 mM sodium phosphate buffer containing 1% v/v TSB, n = 3
Description: as §1, §2, §3, §4, §5, §6

[3] = system: L. monocytogenes ATCC19115; test: SEM analysis of bacterial agglutination; format: cell-based, Listeria monocytogenes; conditions: 3 µM proHD6 treated with trypsin before incubation (trypsin inactivated with APMSF), 30 min, 50 mM Tris-maleate pH 6.4
Description: Fig. 3 TEM analysis of HD6 self-assembly and SEM analysis of bacterial agglutination. Top row: transmission electron micrographs of 10 mM sodium phosphate pH 7.4 (control), 0.4 μM trypsin (control), 20 μM proHD6 in the absence and presence of 0.4 μM trypsin, and 20 μM HD6. All the samples were incubated at room temperature for 1 h. Scale bar = 100 nm. TEM images obtained using 10 mM Tris-maleate pH 6.4 are presented in Fig. S7. ^† Middle row: scanning electron micrographs of E. coli ATCC 25922 treated with 50 mM Tris-maleate pH 6.4 (control), 0.4 μM APMSF-inactivated trypsin (control), 3 μM proHD6, 3 μM trypsin-cleaved proHD6, or 3 μM HD6. Trypsin-cleaved proHD6 was prepared prior to incubation with the bacteria and the residual enzymatic activity was inhibited by APMSF (Experimental section). Following a 30 min incubation, the bacterial suspensions were centrifuged, fixed, and analyzed by SEM. Scale bar = 20 μm. Bottom row: SEM of L. monocytogenes ATCC19115 treated under the same conditions as in the middle row. Scale bar = 20 μm.
Bacteria were grown aerobically at 37 °C overnight in LB media. The next morning the strains were subcultured and grown to mid-logarithmic phase in LB media. […]

For “EPLQAEDDPLQAKAYEADAQEQRGANDQDFAVSFAEDASSSLRALGSTRAFTCHCRRSCYSTEYSYGTCTVMGINHRFCCL (disulfide (positions not given here)) [proHD6, 81-residue propeptide of human α-defensin 6, recombinant, from His6-SUMO-proHD6]”, the antibacterial activity [1] was “does not exhibit antibacterial activity”, the antibacterial activity [2] was “does not exhibit antibacterial activity” and the “bacterial agglutination (SEM), trypsin-cleaved” value [3] was “same trypsin-dependent activity”.
